Assay [1] relates to SKPs. Briefly: 7 day sphere assay with MEK inhibition. The following applies: with 100 nM trametinib.
Assay [2] relates to neonatal rat SKPs. Briefly: Secondary sphere formation assay / dose-response with rat SKPs. The following applies: for rat SKPs sphere number: 100 nM, neonatal rat SKPs; for sphere numbers, dose-response curve: rat SKPs.
Description: Alp and TM were further characterized by dose-response curves with rat SKPs. […] A clonal density assay was also performed to validate the effect of drugs on SKPs self renewal and proliferation. As previously described in Jinno et al., Stem Cells 28:2027-2040, 2010, SKPs were dissociated and plated at 2,500 cells/mL in medium containing 1.6% methylcellulose. Cells were then treated with 100 nM of Alp, TM, Alp and TM, or DMSO and sphere formation was scored after 14 days. […] For comparison, cells were also treated with latanoprost (Latan), a prostaglandin (PGF2) that is bioactive in rodent and human skin. […] Finally, SKP proliferation was directly measured. Rat SKPs were cultured for 3-4 days, treated with Alp or TM daily for a further 2 days, and immunostained with the proliferation marker Ki67.
Assay [3] has as its system human SKPs. Briefly: Dose response sphere forming assay in human SKPs cultures. Particulars: for human SKPs sphere number: 100 nM; for validation of hits in dose response sphere forming assays: secondary screens, rodent and human SKPs cultures.
Assay [4] concerns SKPs. As to the kind of experiment: Sphere forming assay of SKPs isolated from topically treated wound bed or skin. Particulars: in vivo topical application.
Description: To assess whether the effects of topical application of Alp and TM were specific and due to recruitment of SKPs in vivo, an experiment was performed in which the drugs were applied topically for one week on the back skin of aged wounded or not wounded mice. The wound bed or control skin was dissected and SKPs were isolated and allowed to form spheres. Secondary SKP spheres were then used in a sphere forming assay.
The test system of assay [5] is back skin of mice. As to the kind of experiment: Skin assays: dermal thickness and proliferation after topical application. Particulars: for number of Ki67 positive proliferating cells in the dermis: one week of topical treatment; for dermal thickness: three weeks of topical treatment.
Description: Drugs were applied daily on the depilated area for the duration of three weeks. […] In the skin assays, the back hair of mice was shaved to expose skin and drugs were topically applied for the duration of one or three weeks. Skin morphology was then assessed by analyzing dermal thickness and proliferation.
Assay [6] concerns SKPs. As to the kind of experiment: Clonal density assay in methylcellulose (SKPs self renewal and proliferation). Particulars: for sphere number versus control / sphere size versus control: 100 nM, scored after 14 days, 2,500 cells/mL, 1.6% methylcellulose; for sphere numbers, comparison with latanoprost: treatment for 14 days (FIG. 1L). It is filed as cell-based. An excerpt:
Finally, SKP proliferation was directly measured.

Assay [7] concerns ERK1/2. Briefly: Western blot of phosphorylated, activated ERK1/2 in SKPs. Particulars: 100 nM, SKPs cultured in FGF2 and EGF.
In assay [8] the test system is back skin wound of C57/B16 mice. As to the kind of experiment: Full Thickness Biopsy Punch Wound model, topical application. Particulars: for Ki67-positive proliferating dermal cells at the leading edge of the newly formed dermis: 7 days post-injury; for dermal tissue regeneration (layer of new dermal tissue) / epithelial gap / wound width: day 9, morphometric analysis; for CD31-positive blood vessels in the wound bed: leading edge of the newly formed dermis; for mice fully healed on day 7: topical daily, day 7 post-wounding, none of the vehicle treated controls.
Description: The effects of Alp and TM were further validated in in vivo rodent models. The model used was a Full Thickness Biopsy Punch Wound performed on the back skin of middle-aged (9 months old) C57/B16 mice (FIGS. 2A-2I). In these experiments, the hair on the back skin was shaved to expose skin and a 6 mm diameter wound was performed with a biopsy punch. Alp, TM, or vehicle were reconstituted in a composition of water-ethanol-propylene glycol (PG) and applied daily around the wound for the duration of 9 days. Topical analysis was performed to assess the degree of wound closure as well as morphometric analysis. For the analysis of wound closure, digital photographs were taken at day 0, 3, 7, and 9 post wounding. A ruler was used to calibrate the images and the wound margins were manually outlined. The wound closure rate was calculated as a percentage of the wound size on the day of surgery as previously reported in Johnston et al., Stem Cell Reports. […] Morphometric analyses of wound parameters were performed on hematoxylin and eosin-stained paraffin tissue sections from the central portion of the wound bed. Sections were scanned and images were stitched together to show the full wound bed. Morphometric analysis of different parameters was performed as described previously in Johnston et al., supra.

The subject of assay [9] is Akt1. Briefly: Western blot of phosphorylated, activated Akt1 in SKPs. Particulars: 100 nM. (In general: Immunoblotting shows a protein as a band on a membrane.)
Assay [10] relates to GSK3beta. As to the kind of experiment: Western blot of phosphorylated, activated GSK3beta in SKPs. The following applies: 100 nM.
For assay [11], the system named is CREB. Briefly: Western blot of phosphorylated, activated CREB in SKPs. Particulars: 100 nM.
Assay [12] concerns STAT3. As to the kind of experiment: Western blot of phosphorylated, activated STAT3 in SKPs. The following applies: 100 nM.
Assay [13] relates to Rat SKPs. Briefly: Ki67 immunostaining of rat SKP spheres. The following applies: rat SKPs cultured 3-4 days, treated daily for a further 2 days.
Description: Finally, SKP proliferation was directly measured. Rat SKPs were cultured for 3-4 days, treated with Alp or TM daily for a further 2 days, and immunostained with the proliferation marker Ki67.

The values that follow come from patent US9962360B2, “Compositions and methods for enhancing hair growth, promoting skin regeneration, and wound healing” (The Hospital for Sick Children, priority 2014, dated 2018).

For the molecule `CCCCC[C@H](O)/C=C/[C@H]1[C@H](O)CC(=O)[C@@H]1CCCCCCC(=O)O` [Alp, alprostadil], the “compensation of the trametinib-induced decrease in sphere number” value in assay [1] is listed as “neither TM nor Alp compensated”. In assay [2], the “rat SKPs sphere number” value is recorded as “increase” and the “sphere numbers, dose-response curve” value was “increased in a dose-dependent fashion”. In assay [3], the “human SKPs sphere number” value is “increase” and the “validation of hits in dose response sphere forming assays” value (shortened to “validation of hits”) is given as “confirmed”. In addition, the “long term self-renewal of SKPs” value in assay [4] was “enhance”. Moreover, in [5], the “number of Ki67 positive proliferating cells in the dermis” value was “increased” and the dermal thickness entry was “increase”. Besides, in assay [6], the “sphere number versus control” value is given as “robust increase”; the “sphere size versus control” value is listed as “robust increase”; the “sphere numbers, comparison with latanoprost” value (from here on “sphere numbers, comparison”) is listed as “significant increase”. The “increase of ERK1/2 phosphorylation over basal levels” value in assay [7] is listed as “approximately two-fold”. Moreover, in [8], the “Ki67-positive proliferating dermal cells at the leading edge of the newly formed dermis” value is on record as “increased”, the “dermal tissue regeneration (layer of new dermal tissue)” value is “enhanced”, the epithelial gap entry was “significantly smaller” and the wound width result is given as “significantly smaller”. Also, in [8], the “CD31-positive blood vessels in the wound bed” value is “increased” and the “mice fully healed on day 7” value was “almost half”. Besides, the “phosphorylated, activated Akt1 compared to control” value in assay [9] is given as “neither Alp nor TM increased”. In addition, in assay [10], the “phosphorylated, activated GSK3beta compared to control” value was “neither Alp nor TM increased”. In addition, the “phosphorylated, activated CREB compared to control” value in assay [11] is on record as “neither Alp nor TM increased”. For the same molecule, the “phosphorylated, activated STAT3 compared to control” value in assay [12] was “neither Alp nor TM increased”. For the same molecule, in assay [13], the “increase of Ki67-positive sphere cells” value is “approximately 60%”.

With `O=c1c(O)c(-c2ccc(O)cc2)oc2cc(O)cc(O)c12` [Kae, kaempferol], the “rat SKPs sphere number” value in assay [2] is on record as “increase”. For the same molecule, in [3], the “human SKPs sphere number” value is listed as “increase” and the “validation of hits” value is given as “confirmed”.

`CC(C)OC(=O)CCC/C=C\C[C@@H]1[C@@H](CC[C@@H](O)CCc2ccccc2)[C@H](O)C[C@@H]1O` [Latan, latanoprost]: in [6], the “sphere numbers, comparison” value is recorded as “significant increase”.

As for `CC[N+](CC)(CC)CCOc1ccc(/C=C/c2ccccc2)cc1` [MG 624], the “rat SKPs sphere number” value in [2] is listed as “increase”. In [3], the “human SKPs sphere number” value is “increase” and the “validation of hits” value is on record as “confirmed”.

With `CCCCOc1ccc(OCCCN2CCOCC2)cc1` [Pram, pramoxine], in assay [2], the “rat SKPs sphere number” value is on record as “increase”. In assay [3], the “human SKPs sphere number” value is “increase” and the “validation of hits” value was “confirmed”.

Turning to trimebutine maleate [TM], in [1], the “compensation of the trametinib-induced decrease in sphere number” value was “neither TM nor Alp compensated”. Besides, in [2], the “rat SKPs sphere number” value is “increase” and the “sphere numbers, dose-response curve” value was “increased in a dose-dependent fashion”. In [3], the “human SKPs sphere number” value is on record as “increase” and the “validation of hits” value is given as “confirmed”. Besides, in assay [4], the “long term self-renewal of SKPs” value is “enhance”. Further, in [5], the “number of Ki67 positive proliferating cells in the dermis” value was “increased” and the dermal thickness result was “increase”. In addition, in assay [6], the “sphere number versus control” value is “robust increase”; the “sphere size versus control” value is reported as “robust increase”; the “sphere numbers, comparison” value is on record as “significant increase”. In assay [7], the “increase of ERK1/2 phosphorylation over basal levels” value is “approximately two-fold”. Moreover, in [8], the “Ki67-positive proliferating dermal cells at the leading edge of the newly formed dermis” value is “increase”, the “dermal tissue regeneration (layer of new dermal tissue)” value is “enhanced”, the epithelial gap result is “significantly smaller” and the wound width result is recorded as “significantly smaller”. Also, in assay [8], the “CD31-positive blood vessels in the wound bed” value is “increased” and the “mice fully healed on day 7” value is listed as “almost half”. In addition, in assay [9], the “phosphorylated, activated Akt1 compared to control” value is given as “neither Alp nor TM increased”. Further, the “phosphorylated, activated GSK3beta compared to control” value in assay [10] is “neither Alp nor TM increased”. The “phosphorylated, activated CREB compared to control” value in assay [11] is “neither Alp nor TM increased”. For the same molecule, the “phosphorylated, activated STAT3 compared to control” value in assay [12] is “neither Alp nor TM increased”. In assay [13], the “increase of Ki67-positive sphere cells” value was “approximately 60%”.
